According to EP2982368A1, “Small molecule compounds displacing focal adhesion core components” (Universität Konstanz, priority 2014, dated 2016):

How the values were obtained:
GFP-FAK MEFs = experiment: Cell migration assay (single cell tracking, serum-stimulated); format: cell-based, mouse; details: for cell velocity: serum-stimulated
Experimental: Image J was used to automatically quantify FAK-containing focal adhesions due to local maxima of fluorescence intensity in the GFP-channel (5 to 70 pixel). The number of cells was automatically counted in the Hoechst channel. To test reproducibility of the system 40 control wells were quantified wherein four positions for each well were imaged. […] GFP-FAK mouse embryonic fibroblasts were seeded on fibronectin and incubated for 1 h with the indicated concentrations of the small compounds, respectively. […] GFP-FAK mouse embryonic fibroblasts were seeded on fibronectin and serum-starved overnight. The indicated concentrations of Mb31 were applied for 30 min. Cells were lysed and analyzed for paxillin and FAK protein level as well as FAK Tyr397 phosphorylation. […] The purified kinase domain of FAK was incubated with increasing amounts of Mb31 for 1 h at 30°C together with poly-Glu-Tyr as a FAK substrate. […] Serum-starved GFP-FAK mouse embryonic fibroblasts were stimulated with normal growth medium and incubated for 5 h with the indicated concentrations of the small molecule compounds, respectively. Cell viability was assessed by MTT assay. […] GFP-FAK MEFs were seeded on fibronectin and serum-starved overnight. Migration was stimulated by replacing the medium with normal growth medium. Migration of single cells was tracked for 8 h in 30 min intervals. Migration was recorded from cells that were cultured without serum (A), with serum (B) or with serum in the presence of 3 µM Mb31 (C). […] (A) GFP-FAK MEFs were seeded and serum-starved as in Figure 10. Cell migration was stimulated with normal growth medium and single cells were tracked for 5 h. […] Mouse embryonic fibroblasts (MEFs) were transfected with talin-mCherry and talin dynamics analyzed in focal adhesions using fluorescence recovery after photobleaching (FRAP). […] (C) Wound closure was microscopically analyzed and evaluated using ImageJ software.
To further determine whether Mb31 interferes with cell motility, GFP-FAK MEFs were serum-stimulated and migration was quantified on a single cell basis (Figures 11 and 12). […]

paxillin = experiment: Paxillin displacement in GFP-FAK MEFs (antibody staining, live cell imaging of mKate-paxillin); format: cell-based, mouse; details: 10 µM
Experimental: The C-terminal focal adhesion targeting domain of FAK binds to paxillin and talin and is responsible for an efficient recruitment of FAK to focal adhesions. Therefore, it was further investigated whether Mb31 targets FAK directly or possibly in an indirect way by displacement of FAK binding proteins paxillin or talin, respectively. GFP-FAK MEFs were treated with 10 µM of Mb31 and analyzed for paxillin and talin localization via antibody staining. […] To analyze whether FAK and paxillin displacement occur with the same temporal pattern GFP-FAK MEFs were transiently transfected to express mKate-tagged paxillin and living cells were imaged after application of 10 µM of Mb31. Along with FAK, paxillin delocalized rapidly and within 10 min almost no paxillin and FAK remained at focal adhesions. Strikingly, in cells over-expressing paxillin higher Mb31 concentrations were necessary in order to achieve efficient FAK displacement. In non-transfected cells already 4 to 5 µM Mb31 were sufficient, whereas in cells with strong over-expression of paxillin even at 10 µM FAK and paxillin displacement was only partial. […] Still, vinculin localization was not altered in FAK-deficient MEFs treated with Mb31.
MEFs were seeded on fibronectin fragment (4 µg/ml in PBS) in multi-well plates (Greiner Bio-One) and incubated for 4 h to allow spreading. Cells were fixed and permeabilized with MeOH at -20°C after pre-fixation with 4% paraformaldehyde. Cells were blocked with 10% CS in PBS (blocking buffer) and incubated with primary antibodies (α-talin, α-paxillin or α-vinculin) in blocking buffer for 1 h at room temperature. Cells were washed three times with PBS and were incubated with appropriate fluorescently labeled secondary antibodies. Cells were washed again with PBS to remove excess antibodies and were imaged using a Leica AF6000LX fluorescence microscope. To analyze reversibility compound treated cells were washed three times with pre-warmed growth medium. After washout cells were incubated 1 h in presence of 10 µg/ml cycloheximide. […]

O=[N+]([O-])C=Cc1cc(Br)cs1 [FootLocker 1, 4-bromo-2-(2-nitrovinyl)thiophene]
cell velocity after treatment of migrating cells (GFP-FAK MEFs; added after 5 h tracking, 3 µM or more, further 5 h): 0.11 µm/min
cell velocity (GFP-FAK MEFs; 2 µM): 0.11 µm/min
cell velocity (GFP-FAK MEFs; 3 µM): 0.07 µm/min
FAK and paxillin displacement in cells with strong over-expression of paxillin (paxillin): only partial
paxillin localization (paxillin; 30 min, antibody staining): displaced from focal adhesions
time until almost no paxillin and FAK remained at focal adhesions (paxillin; living cells expressing mKate-tagged paxillin): ≤ 10 min
